Source: patent US3959283A, “Amino-derivatives of 1,4-benzodioxan” (Laboratoire L. Lafon, priority 1974, dated 1976)
Structures can show the parent of a compound that is named as a salt.

How the values were obtained:
adrenalin = assay: Effect on the amines and reflexes: adrenalin; settings: in vivo
Text: (§1) In Table III below, the effects of the products on the amines and the reflexes have been summarised.

acetylcholine = assay: Effect on the amines and reflexes: acetylcholine; settings: in vivo
Text: as §1

adrenergic receptors [1] = assay: Tension effects of adrenalin after intraduodenal product of Example 11; assay type: in vivo, dogs; settings: Experiment A
Text: (§2) The product was investigated by intraduodenal administration to dogs anaesthetised with Nembutal, in four experiments, A B C and D.

dogs [2] = assay: Hypotensive effect in dogs anaesthetised with Nembutal; assay type: in vivo
Text: This hypotension manifests itself especially in a decrease in the differential pressure, the lowering of the diastolic pressure being greater than that of the systolic pressure.

adrenergic receptors [3] = assay: Inhibition/reversal of tension effects of adrenalin, intravenous (products of Examples 11 to 13); assay type: in vivo; settings: i.v.
Method: the doses of CRL 40,150 from 0.5 to 4 mg/kg being administered successively.

[4] = system: reflex relating to occlusion of the carotids; assay: Effect on the amines and reflexes: occlusion of the carotids; settings: in vivo
Text: as §1

peripheral vagus = assay: Effect on the amines and reflexes: stimulation of the peripheral vagus; settings: in vivo
Text: as §1

dogs [5] = assay: Intraduodenal administration to dogs anaesthetised with Nembutal (product of Example 11), Experiments A to D; assay type: in vivo
Method: Complementary experiments carried out on anaesthetised dogs have been given below for the product of Example 11 administered intraduodenally (ID).
as §2
The arterial pressure is not altered. The pulse rate increases by at most 20% after 15 minutes and then decreases slowly (+ 14% after 30 minutes).
After 1 hour, the femoral flow rate has still been increased by 100% (from 36 to 72 ml/minute).
The α-receptors of the animal are already blocked. […] The vertebral flow rate is 20 ml/minute.
15 hr. […] 15 hr. […] 16 hr. […] 16 hr. 23 min. Propanolol: 0.3 mg/kg administered intravenously. […] The arterial pressure increases by approximately 10%. […] The pulse rate increases by 20 to 33%. […] The femoral flow rate is increased by only 25%.

central vagus = assay: Effect on the amines and reflexes: stimulation of the central vagus; settings: in vivo
Text: as §1

[6] = Acute intravenous toxicity in mice, products of Examples 10 to 13 (LD50); settings: mouse, in vivo, i.v., group of male and female mice
Text: (a) determined on a group of male and female mice,
(b) determined on a group consisting solely of female mice.

[7] = Experiment A, 15 and 30 mg/kg ID
[8] = Experiment B, second administration 30 mg/kg ID, after 1 hour
[9] = Experiment B, second administration 30 mg/kg ID, after 2 hours
[10] = Experiment B, third administration 30 mg/kg ID
[11] = Experiment D, second 15 mg/kg ID

COc1cc(OC)cc(OCCN2CCN(CC3COc4ccccc4O3)CC2)c1 (centres unmarked) [Example 11, 1-[2-(1,4-Benzodioxanyl)-methyl]-4-[2-(3,5-dimethoxyphenoxy)-ethyl]-piperazine dihydrochloride]
Effect on the amines and reflexes: adrenalin (adrenalin): reversal | Effect on the amines and reflexes: acetylcholine (acetylcholine): no change | tension effects of adrenalin (adrenergic receptors [1]; 5 minutes after the first dose (15 mg/kg ID)): reversed | passage through the intestinal barrier (adrenergic receptors [1]; ID): passed through the intestinal barrier | hypotension (dogs [2]): 40% | dose from which tension effects of adrenalin are inhibited and then reversed (adrenergic receptors [3]): ≥ 0.37 mg/kg | Effect on the amines and reflexes: reflex relating to occlusion of the carotids [4]: reduced | Effect on the amines and reflexes: stimulation of the peripheral vagus (peripheral vagus): not changed | arterial pressure (dogs [5]; [7]): not altered | effect on the femoral flow rate (dogs [5]; [7]): no effect | effect on the vertebral flow rate (dogs [5]; [7]): no effect | increase in pulse rate (dogs [5]; Experiment A, after 15 minutes): at most 20% | increase in pulse rate (dogs [5]; Experiment A, after 30 minutes): 14% | increase in femoral flow rate (dogs [5]; Experiment B, 15 mg/kg ID, 5 minutes): 134% | increase in femoral flow rate (dogs [5]; Experiment B, 15 mg/kg ID, 15 minutes): 194% | increase in femoral flow rate (dogs [5]; Experiment B, 15 mg/kg ID, 1 hour): 100% | femoral flow rate (dogs [5]; Experiment B, 15 mg/kg ID, 1 hour, from 36): 72 mL/min | increase in differential arterial pressure (dogs [5]; Experiment B, ID): 30% | increase in the pulse rate (dogs [5]; Experiment B, ID): ≤ 30% | decrease in average arterial pressure (dogs [5]; Experiment B, ID, at most): ≤ 18% | average arterial pressure (dogs [5]; Experiment B, ID, lowest, from 165): 135 mm Hg | femoral flow rate (dogs [5]; [8]): 104 mL/min | increase in femoral flow rate (dogs [5]; [8]): 184% | femoral flow rate (dogs [5]; [9]): 92 mL/min | increase in femoral flow rate (dogs [5]; [9]): 156% | change in femoral flow rate (dogs [5]; Experiment B, second administration 30 mg/kg ID, first 45 minutes): does not change the flow rate further | femoral flow rate (dogs [5]; [10]): 108 mL/min | increase in femoral flow rate (dogs [5]; [10]): 200% | effect on the femoral flow rate (dogs [5]; Experiment C, 15 mg/kg ID): zero | increase in vertebral flow rate (dogs [5]; Experiment C, 15 mg/kg ID, after 60 minutes): 35% | vertebral flow rate (dogs [5]; Experiment C, 15 mg/kg ID, after 60 minutes, from 20): 27 mL/min | average pressure (dogs [5]; Experiment D, 15 mg/kg ID): remaining constant | differential pressure (dogs [5]; Experiment D, 15 mg/kg ID): large increase in the differential pressure | increase in arterial pressure (dogs [5]; Experiment D, 15 mg/kg ID): approximately 10% | increase in femoral flow rate (dogs [5]; Experiment D, 15 mg/kg ID, 10 minutes): 170% | femoral flow rate (dogs [5]; Experiment D, 15 mg/kg ID, 10 minutes, from 48): 130 mL/min | increase in femoral flow rate (dogs [5]; Experiment D, 15 mg/kg ID, 30 minutes): 100% | increase in femoral flow rate (dogs [5]; Experiment D, 15 mg/kg ID, 75 minutes): 50% | increase in vertebral flow rate (dogs [5]; Experiment D, 15 mg/kg ID, first administration, at most): ≤ 16% | increase in femoral flow rate (dogs [5]; [11]): 25% | vertebral flow rate (dogs [5]; [11]): 70 mL/min | increase in vertebral flow rate (dogs [5]; Experiment D, second 15 mg/kg ID, after 15 minutes): 94% | Effect on the amines and reflexes: stimulation of the central vagus (central vagus): not changed | LD50 [6]: 60 mg/kg
